Experimental data: patent publication US6620585B1, “Use of ectoenzymes and secreted enzymes to monitor cellular proliferation” (priority 2000, dated 2003)
≈ marks a conversion by molar mass, not a printed value. Positions of bridges follow the written chain, without caps; N, C: chain ends. Non-standard residues stand in square brackets, D forms with d. Residues, ends and D or L forms follow the SMILES beside them. *: point of attachment. Ileψ(thiazoline)Cys = CC[C@H](C)[C@H](N)C1=N[C@H](C(=O)*)CS1; dOrn = NCCC[C@@H](N)C(=O)O

Tested on: bacterial strain engineered for expression of an antisense complementary to a proliferation-required 50S ribosomal protein (rplL and rplJ)
Experiment: not given
Assay type: cell-based, E. coli
Conditions: antisense to rplL and rplJ induced, 400 μM IPTG; growth by light scattering at 595 nm, mid-exponential time point
Method: The effectiveness of the above assays was validated using proliferation-required genes from E. coli which were identified using procedures similar to those described above. Antibiotics of various chemical classes and modes of action were purchased from Sigma Chemicals (St. Louis, Mo.). Stock solutions were prepared by dissolving each antibiotic in an appropriate aqueous solution based on information provided by the manufacturer. The final working solution of each antibiotic contained no more than 0.2% (w/v) of any organic solvent. To determine their potency against a bacterial strain engineered for expression of an antisense complementary to a proliferation-required 50S ribosomal protein, each antibiotic was serially diluted two or three fold in growth medium supplemented with the appropriate antibiotic for maintenance of the anti-sense construct. At least ten dilutions were prepared for each antibiotic. 25 μL aliquots of each dilution were transferred to discrete wells of a 384-well microplate (the assay plate) using a multi-channel pipette. Quadruplicate wells were used for each dilution of an antibiotic under each treatment condition (plus and minus inducer). Each assay plate contained twenty wells for cell growth controls (growth media replacing antibiotic), ten wells for each treatment (plus and minus inducer, in this example IPTG). Assay plates were usually divided into the two treatments: half the plate containing induced cells and an appropriate concentrations of inducer (in this example IPTG) to maintain the state of induction, the other half containing non-induced cells in the absence of IPTG.
Cells for the assay were prepared as follows. Bacterial cells containing a construct, from which expression of antisense nucleic acid complementary to rplL and rplJ, which encode proliferation-required 50S ribosomal subunit proteins, is inducible in the presence of IPTG, were grown into exponential growth (OD600 0.2 to 0.3) and then diluted 1:100 into fresh media containing either 400 μM or 0 μM inducer (IPTG). These cultures were incubated at 37° C. for 2.5 hr. After a 2.5 hr incubation, induced and non-induced cells were respectively diluted into an assay medium at a final OD600 value of 0.0004. The medium contained an appropriate concentration of the antibiotic for the maintenance of the antisense construct. In addition, the medium used to dilute induced cells was supplemented with 800 μM IPTG so that addition to the assay plate would result in a final IPTG concentration of 400 μM. Induced and non-induced cell suspensions were dispensed (25 μl/well) into the appropriate wells of the assay plate as discussed previously. The plate was then loaded into a plate reader, incubated at constant temperature, and cell growth was monitored in each well by the measurement of light scattering at 595 nm. Growth was monitored every 5 minutes until the cell culture attained a stationary growth phase. For each concentration of antibiotic, a percentage inhibition of growth was calculated at the time point corresponding to mid-exponential growth for the associated control wells (no antibiotic, plus or minus IPTG). For each antibiotic and condition (plus or minus IPTG), a plot of percent inhibition versus log of antibiotic concentration was generated and the IC50 determined.

| Compound | IC50 (+IPTG) |
| --- | --- |
| CN[C@@H]1[C@H](O)[C@H](NC)[C@H]2O[C@@]3(O)C(=O)C[C@@H](C)O[C@H]3O[C@@H]2[C@H]1O [Spectinomycin] | <0.156 µg/mL |
| CN(C)c1ccc(O)c2c1C[C@H]1C[C@H]3[C@H](N(C)C)C(O)=C(C(N)=O)C(=O)[C@@]3(O)C(O)=C1C2=O [Minocycline] | 0.003897 µg/mL (≈ 0.00852 µM) |

Same assay, conditions: significant decrease in IC50 in the presence of inducer (IPTG)

| Compound | Sensitivity Increased ? |
| --- | --- |
| CCn1cc(C(=O)O)c(=O)c2ccc(C)nc21 [Nalidixic acid] | No |
| CN[C@H](CC(C)C)C(=O)N[C@H]1C(=O)N[C@@H](CC(N)=O)C(=O)N[C@H]2C(=O)N[C@H]3C(=O)N[C@H](C(=O)N[C@H](C(=O)O)c4cc(O)cc(O)c4-c4cc3ccc4O)[C@H](O)c3ccc(c(Cl)c3)Oc3cc2cc(c3O[C@@H]2O[C@H](CO)[C@@H](O)[C@H](O)[C@H]2O[C@H]2C[C@](C)(N)[C@H](O)[C@H](C)O2)Oc2ccc(cc2Cl)[C@H]1O [Vancomycin] | No |
| CC[C@H](C)[C@H](N)C1=N[C@H](C(=O)N[C@@H](CC(C)C)C(=O)N[C@H](CCC(=O)O)C(=O)N[C@H](C(=O)N[C@H]2CCCCNC(=O)[C@H](CC(N)=O)NC(=O)[C@@H](CC(=O)O)NC(=O)[C@H](Cc3cnc[nH]3)NC(=O)[C@@H](Cc3ccccc3)NC(=O)[C@H]([C@@H](C)CC)NC(=O)[C@@H](CCCN)NC2=O)[C@@H](C)CC)CS1 [Bacitracin] ({Ileψ(thiazoline)Cys}-L[dE]IK[dOrn]I[dF]H[dD]N; lactam 4-C) | No |
| NC[C@H]1O[C@H](O[C@H]2[C@H](O)[C@@H](O[C@H]3O[C@H](CO)[C@@H](O)[C@H](N)[C@H]3O)[C@H](N)C[C@@H]2N)[C@H](N)C[C@@H]1O [Tobramycin] | Yes |
| [H]/N=C(/N)N[C@H]1[C@H](O)[C@@H](O)[C@H](O[C@@H]2O[C@@H](C)[C@](O)(C=O)[C@H]2O[C@@H]2O[C@@H](CO)[C@H](O)[C@@H](O)[C@@H]2NC)[C@@H](N/C(N)=N\[H])[C@@H]1O [Streptomycin] | Yes |
| CO[C@@]1(NC(=O)Cc2cccs2)C(=O)N2C(C(=O)O)=C(COC(N)=O)CS[C@@H]21 [Cefoxitin] | No |
| CC[C@H]1OC(=O)[C@H](C)[C@@H](O[C@H]2C[C@@](C)(OC)[C@@H](O)[C@H](C)O2)[C@H](C)[C@@H](O[C@@H]2O[C@H](C)C[C@H](N(C)C)[C@H]2O)[C@](C)(O)C[C@@H](C)C(=O)[C@H](C)[C@@H](O)[C@]1(C)O [Erythromycin] | Yes |
| CCC[C@@H]1C[C@@H](C(=O)N[C@@H]([C@H]2O[C@H](SC)[C@H](O)[C@@H](O)[C@H]2O)[C@@H](C)O)N(C)C1 [Lincomycin] | Yes |
| CC(=O)O[C@H]1C[C@@]2(C)[C@@H](C[C@@H](O)[C@H]3[C@@]4(C)CC[C@@H](O)[C@@H](C)[C@@H]4CC[C@@]32C)/C1=C(\CCC=C(C)C)C(=O)O [Fusidic acid] | Yes |
| CN[C@@H]1[C@H](O)[C@H](NC)[C@H]2O[C@@]3(O)C(=O)C[C@@H](C)O[C@H]3O[C@@H]2[C@H]1O [Spectinomycin] | Yes |
| CO/N=C(\C(=O)N[C@@H]1C(=O)N2C(C(=O)O)=C(COC(C)=O)CS[C@H]12)c1csc(N)n1 [Cefotaxime] | No |
| O=C(N[C@H](CO)[C@H](O)c1ccc([N+](=O)[O-])cc1)C(Cl)Cl [Chloramphenicol] | Yes |
| Gentamicin | Yes |

Tested on: E. coli strain DJKGC4
Experiment: Chitobiase-based cell growth assay, gentamicin dose response in 1536-well plate
Conditions: 5 hours, 100 μM MNAG
Method: FIG. 6 is an E. coli dose response curve to gentamicin. E. coli strain DJKGC4 was inubated with various concentrations of gentamicin for 5 hours in a 1536 well plate in the presence of 100 μM 4-methylumbelliferyl N-acetyl β-D-glucosaminide (MNAG). After removal of background fluorescence, the inhibition of cell growth produced by each gentamicin concentration was calculated by comparison to the fluorescence generated by control cells growing in the absence of gentamicin.
To follow cell growth using the fluorogenic substrate MNAG, E. coli cells of strain DJKGC4 containing a chromosomally integrated, constitutively expressed chitobiase gene were added to an appropriate growth medium containing 100 μM MNAG, and the resulting cell suspension was dispensed into the wells of 1536-well microplates as described above. Following addition of test compounds and controls, plates were incubated at 37° C. and cell growth was followed by measurement of the fluorescent product of chitobiase activity, 4-methylumbelliferone using an Acquest reader (LJL Biosystems, excitation wavelength 360 nm, emission wavelength 425 nm).
An E. coli dose response to gentamicin was obtained by incubating E. coli strain DJKGC4 with various concentrations of gentamicin for 5 hours in a 1536-well plate in the presence of 100 μM MNAG. […]

| Compound | IC50 by the chitobiase-based assay compared with 384 well plate format, turbidity-based assays |
| --- | --- |
| Gentamicin | indistinguishable |
